{"source": "paper PMC11721293", "about": "(JCI Insight, 2025)", "key": {"SARS-CoV-2-WA": {"test_system": "SARS-CoV-2-WA", "assay_type": "in vivo, mouse", "settings": "50 MPK oral gavage twice daily"}, "[1]": {"test_system": "SARS-CoV-2 spike protein–mediated cell-cell fusion (BA.1)", "assay_type": "cell-based", "settings": "48 h"}, "Calu3 cells": {"test_system": "Calu3 cells", "settings": "Fig 1F"}, "[2]": {"experiment": "Pharmacokinetics after single IP administration", "settings": "K18-hACE2(Tg) C57Bl/6J, mouse, 40 mg/kg; for Kp / concentration at 24 h / half-life: in vivo, single IP; for Kp: AUC ratio (Tissue/PL); for concentration at 24 h: C24h"}, "[3]": {"experiment": "Pharmacokinetics after PO administration", "settings": "K18-hACE2(Tg) C57Bl/6J, mouse, 25 mg/kg; for Kp / half-life: in vivo, PO; for Kp: AUC ratio (Tissue/PL)"}, "[4]": {"test_system": "SARS-CoV-2 strain USA-WA1/2020", "assay_type": "in vivo, mouse", "settings": "for Viral titer Log10: individual animals, sheet S9B"}}, "note": "Several values for one entry are separate records, joined by “and”; a condition that tells them apart may be missing. Equal entries are not always repeated. Where two headings read alike, the source gives them in different places.", "data": [{"compound": "NC(=O)N1CCC(CC(=O)N2CCC([C@H]3c4ncc(Br)cc4CCc4cc(Cl)cc(Br)c43)CC2)CC1", "note": "[LNF, lonafarnib]", "values": [{"measurement": "lung histopathology score vs vehicle", "setting": "SARS-CoV-2-WA", "value": "significantly lower histopathology score"}, {"measurement": "relative luciferase signals", "setting": "[1]; 0.3 (printed)", "value": "93.9702 and 58.6533 and 53.4918 and 75.0181"}, {"measurement": "relative luciferase signals", "setting": "[1]; 1 (printed)", "value": "108.194 and 73.2387 and 73.7551 and 89.5366"}, {"measurement": "CC50", "setting": "Calu3 cells", "value": "> 30", "unit": "µM"}, {"measurement": "AUC(0-inf)", "setting": "[2]; brain", "value": 29, "unit": "µM·h"}, {"measurement": "Cmax", "setting": "[2]; brain", "value": 1.46, "unit": "µM"}, {"measurement": "Tmax", "setting": "[2]; brain", "value": 7, "unit": "h"}, {"measurement": "AUC(0-inf)", "setting": "[2]; heart", "value": 987, "unit": "µM·h"}, {"measurement": "Cmax", "setting": "[2]; heart", "value": 94.1, "unit": "µM"}, {"measurement": "Tmax", "setting": "[2]; heart", "value": 0.5, "unit": "h"}, {"measurement": "Kp", "setting": "[2]; Brain", "value": 0.12}, {"measurement": "Kp", "setting": "[2]; Heart", "value": 3.9}, {"measurement": "Kp", "setting": "[2]; Kidney", "value": 2.8}, {"measurement": "Kp", "setting": "[2]; Liver", "value": 12}, {"measurement": "Kp", "setting": "[2]; Lung", "value": 3.1}, {"measurement": "concentration at 24 h", "setting": "[2]; Brain", "value": 0.36, "unit": "µM"}, {"measurement": "concentration at 24 h", "setting": "[2]; Heart", "value": 11.4, "unit": "µM"}, {"measurement": "concentration at 24 h", "setting": "[2]; Kidney", "value": 8.24, "unit": "µM"}, {"measurement": "concentration at 24 h", "setting": "[2]; Liver", "value": 40.3, "unit": "µM"}, {"measurement": "concentration at 24 h", "setting": "[2]; Lung", "value": 8.17, "unit": "µM"}, {"measurement": "concentration at 24 h", "setting": "[2]; Plasma", "value": 2.76, "unit": "µM"}, {"measurement": "half-life", "setting": "[2]; t1/2, Brain", "value": 8.3, "unit": "h"}, {"measurement": "half-life", "setting": "[2]; t1/2, Heart", "value": 10.1, "unit": "h"}, {"measurement": "half-life", "setting": "[2]; t1/2, Kidney", "value": 9, "unit": "h"}, {"measurement": "half-life", "setting": "[2]; t1/2, Liver", "value": 10.7, "unit": "h"}, {"measurement": "half-life", "setting": "[2]; t1/2, Lung", "value": 8.7, "unit": "h"}, {"measurement": "half-life", "setting": "[2]; t1/2, Plasma", "value": 8.8, "unit": "h"}, {"measurement": "AUC(0-inf)", "setting": "[2]; kidney", "value": 699, "unit": "µM·h"}, {"measurement": "Cmax", "setting": "[2]; kidney", "value": 46, "unit": "µM"}, {"measurement": "Tmax", "setting": "[2]; kidney", "value": 1, "unit": "h"}, {"measurement": "AUC(0-inf)", "setting": "[2]; liver", "value": 3060, "unit": "µM·h"}, {"measurement": "Cmax", "setting": "[2]; liver", "value": 224, "unit": "µM"}, {"measurement": "Tmax", "setting": "[2]; liver", "value": 0.25, "unit": "h"}, {"measurement": "AUC(0-inf)", "setting": "[2]; lung", "value": 788, "unit": "µM·h"}, {"measurement": "Cmax", "setting": "[2]; lung", "value": 93.5, "unit": "µM"}, {"measurement": "Tmax", "setting": "[2]; lung", "value": 0.25, "unit": "h"}, {"measurement": "AUC(0-inf)", "setting": "[2]; plasma", "value": 253, "unit": "µM·h"}, {"measurement": "Cmax", "setting": "[2]; plasma", "value": 63.3, "unit": "µM"}, {"measurement": "Tmax", "setting": "[2]; plasma", "value": 0.08, "unit": "h"}, {"measurement": "AUC(0-inf)", "setting": "[3]; brain", "value": 3, "unit": "µM·h"}, {"measurement": "Cmax", "setting": "[3]; brain", "value": 0.21, "unit": "µM"}, {"measurement": "Tmax", "setting": "[3]; brain", "value": 7, "unit": "h"}, {"measurement": "AUC(0-inf)", "setting": "[3]; heart", "value": 97, "unit": "µM·h"}, {"measurement": "Cmax", "setting": "[3]; heart", "value": 8.6, "unit": "µM"}, {"measurement": "Tmax", "setting": "[3]; heart", "value": 1, "unit": "h"}, {"measurement": "Kp", "setting": "[3]; Brain", "value": 0.056}, {"measurement": "Kp", "setting": "[3]; Heart", "value": 1.8}, {"measurement": "Kp", "setting": "[3]; Kidney", "value": 2.1}, {"measurement": "Kp", "setting": "[3]; Liver", "value": 5.2}, {"measurement": "Kp", "setting": "[3]; Lung", "value": 2.4}, {"measurement": "half-life", "setting": "[3]; t1/2, Brain", "value": 2.4, "unit": "h"}, {"measurement": "half-life", "setting": "[3]; t1/2, Heart", "value": 2.2, "unit": "h"}, {"measurement": "half-life", "setting": "[3]; t1/2, Kidney", "value": 2.4, "unit": "h"}, {"measurement": "half-life", "setting": "[3]; t1/2, Liver", "value": 1.7, "unit": "h"}, {"measurement": "half-life", "setting": "[3]; t1/2, Lung", "value": 2.1, "unit": "h"}, {"measurement": "half-life", "setting": "[3]; t1/2, Plasma", "value": 1.4, "unit": "h"}, {"measurement": "AUC(0-inf)", "setting": "[3]; kidney", "value": 113, "unit": "µM·h"}, {"measurement": "Cmax", "setting": "[3]; kidney", "value": 9.3, "unit": "µM"}, {"measurement": "Tmax", "setting": "[3]; kidney", "value": 1, "unit": "h"}, {"measurement": "AUC(0-inf)", "setting": "[3]; liver", "value": 279, "unit": "µM·h"}, {"measurement": "Cmax", "setting": "[3]; liver", "value": 20, "unit": "µM"}, {"measurement": "Tmax", "setting": "[3]; liver", "value": 7, "unit": "h"}, {"measurement": "AUC(0-inf)", "setting": "[3]; lung", "value": 129, "unit": "µM·h"}, {"measurement": "Cmax", "setting": "[3]; lung", "value": 33, "unit": "µM"}, {"measurement": "Tmax", "setting": "[3]; lung", "value": 0.25, "unit": "h"}, {"measurement": "AUC(0-inf)", "setting": "[3]; plasma", "value": 53, "unit": "µM·h"}, {"measurement": "Cmax", "setting": "[3]; plasma", "value": 3.8, "unit": "µM"}, {"measurement": "Tmax", "setting": "[3]; plasma", "value": 7, "unit": "h"}, {"measurement": "lung viral titer lower than vehicle-treated group", "setting": "[4]; 40 MPK IP twice daily, […]", "value": "~2", "unit": "log"}, {"measurement": "Viral titer Log10", "setting": "[4]; D2", "value": "7.238 Log10 and 6.041 Log10 and 6.833 Log10 and 6.059 Log10 and 6.826 Log10 and 4.954 Log10 and 7.083 Log10 and 4.756 Log10"}, {"measurement": "Viral titer Log10", "setting": "[4]; D5", "value": "6.491 Log10 and 7.228 Log10 and 6.919 Log10 and 6.362 Log10 (2×) and 6.681 Log10 and 7.255 Log10 and 4 Log10 and 7.033 Log10"}, {"measurement": "Titer Log10", "setting": "[4]; Day 2, individual animals", "value": "1.954 (5×) and 2 and 4.538 and 2.301 and 3.13 (2×)"}, {"measurement": "Titer Log10", "setting": "[4]; Day 5, individual animals", "value": "1.954 (3×) and 2.301 and 3.23 and 3.176 and 2.699 and 2.602 and 3.398 and 2.477"}, {"measurement": "lung viral titer", "setting": "[4]; LNF 40 MPK IP, RDV 25 MPK SC, twice daily", "value": "significantly lowered the viral titer in the lung"}]}]}
